Experimental data: patent publication US20250092036A1, “COMPOUNDS AND COMPOSITIONS FOR MODULATING THE ACTIVITY OF ERK” (Novartis AG, priority 2023, published 2025)

Tests used:
[1] = target: T1, ERK2[2-360(p-T185/p-Y187)]-Avi (Homo sapiens, UniProt P28482); assay: Biochemical assay (HTRF competition assay); type: binding; conditions: HTRF competition with Example 15 probe, overnight at RT; read-out: Biochemical qualified AC50
T1 construct: 400 pM ERK2[2-360(p-T185/p-Y187)]-Avi was added to the plate
T1 sequence (P28482 2-360 limits assumed): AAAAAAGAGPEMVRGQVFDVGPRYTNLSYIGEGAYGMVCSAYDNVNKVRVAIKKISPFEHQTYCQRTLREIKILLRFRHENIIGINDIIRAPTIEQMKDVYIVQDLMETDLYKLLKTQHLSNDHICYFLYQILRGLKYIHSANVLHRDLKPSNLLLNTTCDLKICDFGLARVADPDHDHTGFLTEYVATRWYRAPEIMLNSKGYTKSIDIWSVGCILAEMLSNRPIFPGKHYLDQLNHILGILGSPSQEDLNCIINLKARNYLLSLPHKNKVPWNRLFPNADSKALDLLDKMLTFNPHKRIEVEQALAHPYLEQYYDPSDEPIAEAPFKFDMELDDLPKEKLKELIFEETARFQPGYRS

[2] = target: T2, nanobit-large-bit-ERK2 and nanobit-small-bit-PEA15 in WM793 cells (Homo sapiens, UniProt P28482); assay: NanoBiT assay; type: cell-based; conditions: WM793 nanobit stable cell line, overnight incubation; read-out: NanoBiT qualified absolute AC50
T2 construct: expressed in transfected cells
T2 sequence (P28482 whole entry): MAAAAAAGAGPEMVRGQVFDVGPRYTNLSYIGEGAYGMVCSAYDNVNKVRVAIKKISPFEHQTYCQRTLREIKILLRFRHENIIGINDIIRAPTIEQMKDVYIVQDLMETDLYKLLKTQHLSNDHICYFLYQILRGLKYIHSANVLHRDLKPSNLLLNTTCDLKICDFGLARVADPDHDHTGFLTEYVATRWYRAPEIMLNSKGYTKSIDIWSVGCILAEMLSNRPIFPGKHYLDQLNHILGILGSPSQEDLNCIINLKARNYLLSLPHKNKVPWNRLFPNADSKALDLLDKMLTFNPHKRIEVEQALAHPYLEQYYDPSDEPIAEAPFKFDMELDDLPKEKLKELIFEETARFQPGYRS
Outline: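 WM793 cells stably expressing LgBiT-ERK2 and SmBiT-PEA15, treated overnight at 37 °C with a 10-point 3-fold dilution series, top final 30 μM. Luminescence was read and normalized to DMSO wells to give percent inhibition. IC50 was fitted from dose-response curves.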

[3] = test system: WM793 cells; assay: Cell proliferation assay (CellTiter-Glo); type: cell-based; conditions: Homo sapiens, WM793, 72 h, 3 d, read-out: Cell proliferation qualified AC50
Outline: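 WM793 cells in RPMI + 10% FBS, 750 cells/well, treated 3 d at 37° C with 10-point 3-fold dilutions (highest 20 μM). CellTiter-Glo luminescence at Day 0 and Day 3; percent growth inhibition normalized to Day 3 DMSO wells and Day 0 counts, and IC50 taken from dose-response curves.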

[4] = test system: WM793 BRAFV600E tumor xenograft; assay: Anti-tumor activity and tolerability in WM793 BRAFV600E tumor xenograft in nude mice; type: in vivo

CN1C[C@@H](F)[C@@H](NC(=O)C2(c3ccc(F)cc3)CCN(C(=O)c3c(C=O)n(CC4CCOCC4)c4ccc(Cl)cc34)CC2)C1 [Example 13, 1-(5-chloro-2-formyl-1-((tetrahydro-2H-pyran-4-yl)methyl)-1H-indole-3-carbonyl)-N-((3S,4R)-4-fluoro-1-methylpyrrolidin-3-yl)-4-(4-fluorophenyl)piperidine-4-carboxamide]
AC50 [1]: 0.48 nM
AC50 [2]: 56 nM
AC50 [3]: 54 nM
animals sacrificed due to increased body weight loss ([4]; highest dosing group (300 mg/kg bid 2 day on, 1 day off)): One mouse at the highest dosing group was sacrificed on day 11
anti-tumor activity (tumor volume) at the highest dose ([4]; per os, 300 mg/kg bid 2 day on, 1 day off, 14 days): regression
anti-tumor activity (tumor volume) ([4]; per os, 30, 75, 150 mg/kg bid and 300 mg/kg bid 2 day on, 1 day off, 14 days): dose dependent antitumor activity
Percent body weight change following first dose / tolerability ([4]; per os, 30-300 mg/kg bid, 14 days): minimal body weight loss and is well tolerated
